The source of these data is PubChem BioAssay AID248 (DTP/NCI, 2004).

The subject of the experiment is L1210 leukemia ip in BDF1 mice, survival T/C. Kind of experiment: NCI In Vivo Anticancer Drug Screen. Data for tumor model L1210 Leukemia (intraperitoneal) in B6D2F1 (BDF1) mice. As to conditions: endpoint: mean survival time, higher = longer survival. A digest of the protocol:
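In this screen, tumor-bearing mice given compound are compared to those given vehicle, and their survival values are reported as a treated-to-control quotient.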

Where [1] appears, read: dose: 50.0 mg/kg/injection, schedule: Q04DX003 (ip), vehicle: Klucel (hydroxypropylcellulose) (HPC).
The mark [2] stands for this setting: dose: 100.0 mg/kg/injection, schedule: Q01DX001 (ip), vehicle: Klucel (hydroxypropylcellulose) (HPC).
[3] abbreviates: dose: 100.0 mg/kg/injection, schedule: Q04DX003 (ip), vehicle: Klucel (hydroxypropylcellulose) (HPC).
The mark [4] stands for this setting: dose: 200.0 mg/kg/injection, schedule: Q04DX003 (ip), vehicle: Klucel (hydroxypropylcellulose) (HPC).
[5] abbreviates: dose: 400.0 mg/kg/injection, schedule: Q04DX003 (ip), vehicle: Klucel (hydroxypropylcellulose) (HPC).
Setting [6] is: dose: 100.0 mg/kg/injection, schedule: Q01DX001 (ip), vehicle: saline.
[7] abbreviates: dose: 50.0 mg/kg/injection, schedule: Q01DX001 (ip), vehicle: saline.
[8] abbreviates: dose: 200.0 mg/kg/injection, schedule: Q01DX001 (ip), vehicle: saline.
[9] abbreviates: dose: 100.0 mg/kg/injection, schedule: Q04DX002 (ip), vehicle: Klucel (hydroxypropylcellulose) (HPC).
Setting [10] is: dose: 200.0 mg/kg/injection, schedule: Q04DX002 (ip), vehicle: Klucel (hydroxypropylcellulose) (HPC).
Setting [11] is: dose: 400.0 mg/kg/injection, schedule: Q04DX002 (ip), vehicle: Klucel (hydroxypropylcellulose) (HPC).
Where [12] appears, read: dose: 12.5 mg/kg/injection, schedule: Q01DX009 (ip), vehicle: saline with Tween-80.

Each structure is given as a SMILES string. “And” between values parts separate entries of the source, which are not always exact repeats. Equal entries are not always repeated. Toxic doses and inconclusive results are not listed.

For the compound `S=C1NCc2ccccc2N1`, the T/C by setting is: (dose: 12.5 mg/kg/injection, schedule: Q04DX003 (ip), vehicle: Klucel (hydroxypropylcellulose) (HPC)) 93 % of control; (dose: 25.0 mg/kg/injection, schedule: Q04DX003 (ip), vehicle: Klucel (hydroxypropylcellulose) (HPC)) 95 % of control; under setting [1], 103 % of control; under setting [2], 102 % of control.

In the case of `Cc1ccc(SNc2ccccc2)cc1`, the T/C (dose: 100.0 mg/kg/injection, schedule: Q04DX003 (ip), vehicle: saline with Tween-80) was 92 % of control and the T/C (dose: 200.0 mg/kg/injection, schedule: Q04DX003 (ip), vehicle: saline with Tween-80) is 100 % of control.

Take `CC1=C(C)C2(Cl)C(Cl)=C(Cl)C1(Cl)C2(Cl)Cl`: the T/C runs as follows: under setting [1], 96 % of control; under setting [3], 91 % of control; under setting [4], 92 % of control; under setting [5], 96 % of control.

With `S=C(C#Cc1ccccc1)Nc1ccccc1`, the T/C was 93 % of control (dose: 100.0 mg/kg/injection, schedule: Q04DX002 (ip), vehicle: saline with Tween-80) and 86 % of control (dose: 200.0 mg/kg/injection, schedule: Q04DX002 (ip), vehicle: saline with Tween-80).

With `CCCCn1c(C)nc2c(NN=C(N)N)c3ccccc3c(N=NC(=N)N)c21`, the T/C reads like this: (dose: 7.5 mg/kg/injection, schedule: Q01DX Z (oral), vehicle: carboxymethylcellulose (CMC)) 102 % of control; (dose: 15.0 mg/kg/injection, schedule: Q01DX Z (ip), vehicle: carboxymethylcellulose (CMC)) 95 % of control; (dose: 15.0 mg/kg/injection, schedule: Q01DX Z (oral), vehicle: carboxymethylcellulose (CMC)) 104 % of control; (dose: 30.0 mg/kg/injection, schedule: Q01DX Z (oral), vehicle: carboxymethylcellulose (CMC)) 98 % of control; (dose: 60.0 mg/kg/injection, schedule: Q01DX Z (oral), vehicle: carboxymethylcellulose (CMC)) 98 % of control.

`COc1ccc(CCN)cc1`: the T/C by setting is: (dose: 25.0 mg/kg/injection, schedule: Q04DX002 (ip), vehicle: saline) 101 % of control; (dose: 50.0 mg/kg/injection, schedule: Q04DX002 (ip), vehicle: saline) 97 % of control; (dose: 100.0 mg/kg/injection, schedule: Q04DX002 (ip), vehicle: saline) 97 % of control and 109 % of control.

With `NCCCCC(N)C(=O)NCCCCCCN(CCCCCCNC(=O)C(N)CCCCN)C(=O)C(N)CCCCN` (stereo not drawn), the T/C under setting [6] is 92 % of control.

Consider `c1ccc2nc(-c3cc4ccccc4s3)ccc2c1`, for which the T/C is 96 % of control (dose: 100.0 mg/kg/injection, schedule: Q01DX009 (ip), vehicle: saline sonified); 97 % of control under setting [3]; 100 % of control (dose: 200.0 mg/kg/injection, schedule: Q01DX009 (ip), vehicle: saline sonified); 95 % of control under setting [4]; 103 % of control (dose: 400.0 mg/kg/injection, schedule: Q01DX009 (ip), vehicle: saline sonified); 101 % of control under setting [5].

For the compound `COC(=O)c1ccc(SCCCN2CCOCC2)cc1`, the T/C is 97 % of control (dose: 100.0 mg/kg/injection, schedule: Q01DX009 (ip), vehicle: saline); 109 % of control (dose: 100.0 mg/kg/injection, schedule: Q04DX003 (ip), vehicle: saline); 96 % of control (dose: 200.0 mg/kg/injection, schedule: Q01DX009 (ip), vehicle: saline); 96 % of control (dose: 200.0 mg/kg/injection, schedule: Q04DX003 (ip), vehicle: saline); 102 % of control (dose: 400.0 mg/kg/injection, schedule: Q01DX009 (ip), vehicle: saline); 100 % of control (dose: 400.0 mg/kg/injection, schedule: Q04DX003 (ip), vehicle: saline).

Consider `OCC1OC(n2ccc3c(SCc4ccccc4)ncnc32)C(O)C1O` (stereo not drawn), for which the T/C reads like this: (dose: 25.0 mg/kg/injection, schedule: Q01DX001 (ip), vehicle: saline) 110 % of control; under setting [7], 107 % of control; under setting [6], 98 % of control; under setting [8], 116 % of control.

`C[N+](C)(C)C1/C=C(/Cl)CC/C=C(/Cl)C1` (stereo not drawn): the T/C is, setting by setting: (dose: 9.38 mg/kg/injection, schedule: Q01DX001 (ip), vehicle: saline) 96 % of control; (dose: 18.75 mg/kg/injection, schedule: Q01DX001 (ip), vehicle: saline) 89 % of control; (dose: 37.5 mg/kg/injection, schedule: Q01DX001 (ip), vehicle: saline) 97 % of control.

On to `CCOC(=O)/C(=C/c1ccc(OC)c(OC)c1)P(=O)(OCC)OCC`, for which the T/C reads like this: under setting [7], 101 % of control; under setting [6], 95 % of control.

`Cc1cccc(NC(=O)Nc2ccccc2F)n1`: the T/C by setting is: under setting [2], 96 % of control; (dose: 100.0 mg/kg/injection, schedule: Q01DX009 (ip), vehicle: Klucel (hydroxypropylcellulose) (HPC)) 96 % of control; under setting [9], 94 % of control and 87 % of control; under setting [3], 99 % of control; (dose: 200.0 mg/kg/injection, schedule: Q01DX001 (ip), vehicle: Klucel (hydroxypropylcellulose) (HPC)) 91 % of control; (dose: 200.0 mg/kg/injection, schedule: Q01DX009 (ip), vehicle: Klucel (hydroxypropylcellulose) (HPC)) 96 % of control and 88 % of control. The T/C reads like this: under setting [10], 96 % of control and 91 % of control; under setting [4], 111 % of control; (dose: 400.0 mg/kg/injection, schedule: Q01DX009 (ip), vehicle: Klucel (hydroxypropylcellulose) (HPC)) 105 % of control and 88 % of control; under setting [11], 87 % of control and 91 % of control; under setting [5], 97 % of control.

Turning to `COC(=O)c1ccc(C(=O)OC)nc1`, the T/C by setting is: (dose: 50.0 mg/kg/injection, schedule: Q04DX002 (ip), vehicle: Klucel (hydroxypropylcellulose) (HPC)) 106 % of control; under setting [9], 95 % of control; under setting [10], 103 % of control.

In the case of `CCOC(=O)CC(NC(=O)N(CCCl)CCCl)C(=O)OCC` (stereo not drawn), the T/C was 101 % of control (dose: 62.5 mg/kg/injection, schedule: Q01DX Z (ip), vehicle: water); 108 % of control (dose: 125.0 mg/kg/injection, schedule: Q01DX Z (ip), vehicle: water); 111 % of control (dose: 250.0 mg/kg/injection, schedule: Q01DX Z (ip), vehicle: water).

Turning to `O=C(O)c1cc([N+](=O)[O-])ccc1Cl`, the T/C under setting [9] was 117 % of control, the T/C under setting [10] is 103 % of control and the T/C under setting [11] is 98 % of control.

For `CCC[CH2][Sn]1([CH2]CCC)[CH]=CCC=[C]1C`, the T/C is 93 % of control (dose: 6.25 mg/kg/injection, schedule: Q01DX009 (ip), vehicle: saline with Tween-80); 93 % of control under setting [12]; 101 % of control and 89 % of control (dose: 25.0 mg/kg/injection, schedule: Q01DX009 (ip), vehicle: saline with Tween-80).

With `COc1cccnc1/C=N/NC(N)=S`, under setting [12], the T/C is 150 % of control.

On to `COc1ccccc1/C=C\C(=O)C1COCN1` (stereo not drawn), for which the T/C by setting is: (dose: 75.0 mg/kg/injection, schedule: Q04DX003 (ip), vehicle: saline) 105 % of control; (dose: 150.0 mg/kg/injection, schedule: Q04DX003 (ip), vehicle: saline) 100 % of control; (dose: 300.0 mg/kg/injection, schedule: Q04DX003 (ip), vehicle: saline) 102 % of control.

As to `CS(=O)(=O)OCCN(CCOS(C)(=O)=O)c1cccc(F)c1`, the T/C reads like this: (dose: 5.0 mg/kg/injection, schedule: Q01DX001 (ip), vehicle: saline) 98 % of control and 113 % of control; (dose: 9.0 mg/kg/injection, schedule: Q01DX001 (ip), vehicle: saline) 98 % of control; (dose: 10.0 mg/kg/injection, schedule: Q01DX001 (ip), vehicle: saline) 100 % of control; (dose: 13.0 mg/kg/injection, schedule: Q01DX001 (ip), vehicle: saline) 96 % of control; (dose: 30.0 mg/kg/injection, schedule: Q01DX001 (ip), vehicle: saline) 97 % of control; (dose: 40.0 mg/kg/injection, schedule: Q01DX001 (ip), vehicle: saline) 100 % of control. In addition, the T/C was 103 % of control under setting [7]; 98 % of control and 87 % of control (dose: 80.0 mg/kg/injection, schedule: Q01DX001 (ip), vehicle: saline); 105 % of control under setting [6]; 121 % of control under setting [8].

For `Cc1[nH]c2ccccc2c1C(=O)Cc1ccc(Cl)c(Cl)c1`, the T/C reads like this: under setting [7], 101 % of control; under setting [6], 98 % of control; under setting [8], 98 % of control; (dose: 400.0 mg/kg/injection, schedule: Q01DX001 (ip), vehicle: saline) 101 % of control.
